Results as given in article PMC4516224 (Pharmaceutical research, 2008).
Each block holds one molecule with its values, some of them ahead of it.

Assays:
[1] = rabbit; in the absence of an inhibitor
rPCEC [2] = experiment: Cellular accumulation of [14C] erythromycin in rPCEC; type: cell-based, rabbit
rPCEC [3] = experiment: Cell proliferation assay; type: cell-based, rabbit; conditions: steroid 500 μM with erythromycin, 12 h, data not shown
P-gp = P-gp (Homo sapiens, UniProt P08183); experiment: Bi-directional transport across MDCK-MDR1 cell monolayers; type: in vitro ADME; conditions: MDCK-MDR1, pH 7.4
MRP2 = MRP2 (Homo sapiens, UniProt Q92887); experiment: Bi-directional transport across MDCK-MRP2 cell monolayers; type: in vitro ADME; conditions: pH 7.4
Sequence of MRP2 (Q92887 whole entry): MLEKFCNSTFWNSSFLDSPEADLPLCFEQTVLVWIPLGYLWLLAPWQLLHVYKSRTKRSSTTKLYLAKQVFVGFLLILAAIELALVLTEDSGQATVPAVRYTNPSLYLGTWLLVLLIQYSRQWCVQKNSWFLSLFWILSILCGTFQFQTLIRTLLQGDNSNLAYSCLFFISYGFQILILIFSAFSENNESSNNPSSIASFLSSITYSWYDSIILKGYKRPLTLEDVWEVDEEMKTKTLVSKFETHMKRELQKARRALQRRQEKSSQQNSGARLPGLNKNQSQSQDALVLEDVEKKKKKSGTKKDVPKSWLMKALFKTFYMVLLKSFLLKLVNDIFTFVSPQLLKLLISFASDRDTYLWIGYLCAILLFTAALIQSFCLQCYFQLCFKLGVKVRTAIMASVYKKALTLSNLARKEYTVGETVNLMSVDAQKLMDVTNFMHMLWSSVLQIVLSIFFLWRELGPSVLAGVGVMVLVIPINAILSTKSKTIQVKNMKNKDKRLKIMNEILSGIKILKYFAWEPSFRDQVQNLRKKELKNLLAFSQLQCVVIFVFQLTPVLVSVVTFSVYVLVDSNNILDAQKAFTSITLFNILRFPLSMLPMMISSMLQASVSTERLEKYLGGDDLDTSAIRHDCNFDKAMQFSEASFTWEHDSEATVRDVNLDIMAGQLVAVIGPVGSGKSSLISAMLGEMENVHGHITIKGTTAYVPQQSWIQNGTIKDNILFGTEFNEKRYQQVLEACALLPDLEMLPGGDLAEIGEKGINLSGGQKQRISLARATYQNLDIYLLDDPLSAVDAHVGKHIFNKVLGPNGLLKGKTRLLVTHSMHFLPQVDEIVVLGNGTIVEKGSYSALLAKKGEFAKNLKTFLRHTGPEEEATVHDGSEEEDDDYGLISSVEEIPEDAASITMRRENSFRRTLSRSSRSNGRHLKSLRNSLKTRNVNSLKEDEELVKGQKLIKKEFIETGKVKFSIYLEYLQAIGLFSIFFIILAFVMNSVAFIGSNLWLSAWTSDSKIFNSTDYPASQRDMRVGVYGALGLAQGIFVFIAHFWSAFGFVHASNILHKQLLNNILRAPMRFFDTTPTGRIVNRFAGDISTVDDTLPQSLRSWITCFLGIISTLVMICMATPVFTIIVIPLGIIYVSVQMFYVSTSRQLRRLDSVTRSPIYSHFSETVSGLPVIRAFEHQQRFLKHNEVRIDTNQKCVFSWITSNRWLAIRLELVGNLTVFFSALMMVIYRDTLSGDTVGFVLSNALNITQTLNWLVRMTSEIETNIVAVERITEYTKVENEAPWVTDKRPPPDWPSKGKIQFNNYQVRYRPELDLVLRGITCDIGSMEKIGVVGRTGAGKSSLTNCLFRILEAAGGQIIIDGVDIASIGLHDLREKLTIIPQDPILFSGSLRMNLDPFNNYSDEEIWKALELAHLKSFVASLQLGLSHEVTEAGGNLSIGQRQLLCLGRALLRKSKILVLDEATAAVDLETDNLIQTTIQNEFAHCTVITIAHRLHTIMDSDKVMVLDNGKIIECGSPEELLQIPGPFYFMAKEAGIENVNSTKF

Sequence of P-gp (P08183 whole entry): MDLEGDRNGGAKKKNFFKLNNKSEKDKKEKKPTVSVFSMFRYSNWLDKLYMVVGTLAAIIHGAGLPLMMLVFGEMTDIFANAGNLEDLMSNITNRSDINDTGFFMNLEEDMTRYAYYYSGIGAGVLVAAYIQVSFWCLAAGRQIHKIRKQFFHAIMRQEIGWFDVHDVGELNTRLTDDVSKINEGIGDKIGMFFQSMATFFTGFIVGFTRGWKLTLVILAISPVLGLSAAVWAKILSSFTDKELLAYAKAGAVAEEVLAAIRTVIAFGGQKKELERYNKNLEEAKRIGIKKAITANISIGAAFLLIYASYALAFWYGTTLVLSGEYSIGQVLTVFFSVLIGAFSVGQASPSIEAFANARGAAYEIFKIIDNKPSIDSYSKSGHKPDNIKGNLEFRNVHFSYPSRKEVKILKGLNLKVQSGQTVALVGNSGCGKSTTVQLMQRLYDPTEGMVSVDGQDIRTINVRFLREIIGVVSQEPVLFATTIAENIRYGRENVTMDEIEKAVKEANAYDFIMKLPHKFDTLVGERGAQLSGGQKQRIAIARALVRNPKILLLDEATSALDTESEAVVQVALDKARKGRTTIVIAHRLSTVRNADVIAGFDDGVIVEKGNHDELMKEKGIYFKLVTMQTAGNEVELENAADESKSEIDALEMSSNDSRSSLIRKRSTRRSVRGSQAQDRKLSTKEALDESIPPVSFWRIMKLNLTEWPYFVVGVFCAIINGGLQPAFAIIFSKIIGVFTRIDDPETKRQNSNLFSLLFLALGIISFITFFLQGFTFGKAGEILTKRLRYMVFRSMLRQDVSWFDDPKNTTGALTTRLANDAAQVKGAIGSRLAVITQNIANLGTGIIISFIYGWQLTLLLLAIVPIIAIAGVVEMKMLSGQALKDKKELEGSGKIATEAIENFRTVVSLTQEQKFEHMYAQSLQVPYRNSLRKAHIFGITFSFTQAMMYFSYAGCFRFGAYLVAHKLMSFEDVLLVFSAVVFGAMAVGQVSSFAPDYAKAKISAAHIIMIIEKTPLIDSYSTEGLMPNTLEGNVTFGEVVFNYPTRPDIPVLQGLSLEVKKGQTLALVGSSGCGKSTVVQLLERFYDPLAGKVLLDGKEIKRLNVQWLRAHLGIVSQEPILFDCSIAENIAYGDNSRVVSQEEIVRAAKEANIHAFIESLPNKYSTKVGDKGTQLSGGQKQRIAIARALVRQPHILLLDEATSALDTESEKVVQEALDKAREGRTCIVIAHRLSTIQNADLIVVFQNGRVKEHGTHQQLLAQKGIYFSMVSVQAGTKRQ

Corneal absorption rate constant (ka) of erythromycin [1]: 4.54±0.62×10^−5 min^−1
Compound: CC[C@H]1OC(=O)[C@H](C)[C@@H](O[C@H]2C[C@@](C)(OC)[C@@H](O)[C@H](C)O2)[C@H](C)[C@@H](O[C@@H]2O[C@H](C)C[C@H](N(C)C)[C@H]2O)[C@](C)(O)C[C@@H](C)C(=O)[C@H](C)[C@@H](O)[C@]1(C)O [Ery, erythromycin]

Compound: CN(C)C(=O)CCSC(SCCC(=O)O)c1cccc(/C=C/c2ccc3ccc(Cl)cc3n2)c1 (stereo not shown) [MK571]
Cellular accumulation of [^14C] erythromycin in the presence of specific inhibitor, relative to control (rPCEC [2]; [14C] erythromycin 0.25 μCi/ml, 15 min, GF120918 2 μM, MK571 50 μM): 310%

Compound: C[C@H]1C[C@@H]2[C@H]([C@@H](O)C[C@@]3(C)[C@H]2CC[C@]3(O)C(=O)CO)[C@@]2(C)C=CC(=O)C=C12 [MPL, 6α-methyl prednisolone]
Cellular toxicity (percentage of viable cells vs control) (rPCEC [3]): not toxic | Cellular accumulation of [^14C] erythromycin increased by, relative to control (rPCEC [2]; [14C] erythromycin 0.25 μCi/ml, 15 min, steroid 500 μM): 375% | Inhibition of erythromycin efflux (rPCEC [2]; steroid 500 μM): complete inhibition

Compound: C[C@]12C=CC(=O)C=C1CC[C@@H]1[C@@H]2[C@@H](O)C[C@@]2(C)[C@H]1CC[C@]2(O)C(=O)CO [PL, prednisolone]
Cellular toxicity (percentage of viable cells vs control) (rPCEC [3]): not toxic | Inhibition of erythromycin efflux (rPCEC [2]; steroid 500 μM): ~80%

Papp A→B at 3.5 h, 10 μM (P-gp): 6.97 ± 0.21 ×10⁻⁶ cm/s | Papp B→A at 3.5 h, 10 μM (P-gp): 17.7 ± 0.47 ×10⁻⁶ cm/s | Papp A→B at 3.5 h, 10 μM (MRP2): 6.04 ± 0.15 ×10⁻⁶ cm/s | Papp B→A at 3.5 h, 10 μM (MRP2): 17.8 ± 0.22 ×10⁻⁶ cm/s
Compound: C[C@]12C=CC(=O)C=C1CC[C@@H]1[C@@H]2C(=O)C[C@@]2(C)[C@H]1CC[C@]2(O)C(=O)CO [PS, prednisone]
Cellular toxicity (percentage of viable cells vs control) (rPCEC [3]): not toxic | Inhibition of erythromycin efflux (rPCEC [2]; steroid 500 μM): ~80%
